# Reference: patent publication US12558428B2, “Heterobifunctional compounds and their use in treating disease” (Halda Therapeutics OpCo, Inc., priority 2024, dated 2026)
# Where two headings read alike, the source gives them in different places.
# What was measured:
# Assay type in all cases: cell-based
# [1] = test system: T-Rex 293 cells having increased expression of estrogen receptor alpha protein; test: Cellular growth inhibition assay, T-Rex 293 cells, (+) doxycycline; conditions: Table 7-A, T-Rex 293 cells with doxycycline (increased ERα expression), 72 hours, CellTiter-Glo, read-out: (+) Dox GI50
# Outline: (§1)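 ERα overexpression was switched on by 3 ng/mL doxycycline in a stably transfected T-Rex 293 clone, while uninduced cells served as the comparison line. Proliferation over 72 h of compound treatment was assessed by ATP luminescence, and GI50 values came from four-parameter curves.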
# [2] = test system: T-Rex 293 cells lacking increased expression of estrogen receptor alpha protein; test: Cellular growth inhibition assay, T-Rex 293 cells, (−) doxycycline; conditions: Table 7-A, T-Rex 293 cells without doxycycline (lacking increased ERα expression), 72 hours, CellTiter-Glo, read-out: (−) Dox GI50
# Outline: as §1
# [3] = test system: MCF7 cells (ATCC #HTB-22); test: Cellular growth inhibition assay, MCF7 cells purchased from ATCC; conditions: Table 8-A, MCF7 cells purchased from ATCC, six days, CellTiter-Glo, read-out: GI50
# Outline: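 MCF7 cells in RPMI 1640 with 10% FBS and 0.2 U/ml insulin, seeded at 1,500 cells/well (ATCC) or 225 cells/well (ECACC). Compounds added 24 h later, then 6 days at 37° C. Viability by CellTiter-Glo 2.0 luminescence. GI50 from four-parameter fit.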
SMILES,"GI50 ([1]; T-REx-293, 72 h) [nM]","GI50 ([2]; T-REx-293, 72 h) [nM]","GI50 ([3]; Homo sapiens, MCF7, 144 h) [nM]",GI50 [1] [nM],GI50 [2] [nM],GI50 [3] [nM]
Cc1sc2c(c1C)C(c1ccc(N3CCCN(CCCNCCOc4ccc([C@@H]5c6ccc(O)cc6CC[C@@H]5c5ccccc5)cc4)CC3)cc1)=NC(Cc1ncco1)c1nnc(C)n1-2 (stereo partly drawn) [III-42],< 50,50 to 500,50 to 500,–,–,–
Cc1sc2c(c1C)C(c1ccc(N[C@H]3CC[C@H](CNCCOc4ccc([C@@H]5c6ccc(O)cc6CC[C@@H]5c5ccccc5)cc4)CC3)cc1)=NC(Cc1ncco1)c1nnc(C)n1-2 (stereo partly drawn) [III-43],< 50,50 to 500,50 to 500,–,–,–
Cc1sc2c(c1C)C(c1ccc(N3CCCC(CN(C)CCOc4ccc([C@@H]5c6ccc(O)cc6CC[C@@H]5c5ccccc5)cc4)C3)cc1)=NC(Cc1ncco1)c1nnc(C)n1-2 (stereo partly drawn) [III-44],50 to 500,500 to 2500,50 to 500,–,–,–
Cc1sc2c(c1C)C(c1ccc(NCCC3CCCN(CCOc4ccc([C@@H]5c6ccc(O)cc6CC[C@@H]5c5ccccc5)cc4)C3)cc1)=NC(Cc1ncco1)c1nnc(C)n1-2 (stereo partly drawn) [III-45],< 50,50 to 500,50 to 500,–,–,–
Cc1sc2c(c1C)C(c1ccc(N[C@H]3CCN(CCOc4ccc([C@@H]5c6ccc(O)cc6CC[C@@H]5c5ccccc5)cc4)C[C@@H]3F)cc1)=NC(Cc1ncco1)c1nnc(C)n1-2 (stereo partly drawn) [III-46],< 50,< 50,< 50,–,–,–
Cc1sc2c(c1C)C(c1ccc(N[C@H]3CCCCN(CCOc4ccc([C@@H]5c6ccc(O)cc6CC[C@@H]5c5ccccc5)cc4)C3)cc1)=NC(Cc1ncco1)c1nnc(C)n1-2 (stereo partly drawn) [III-47],50 to 500,50 to 500,50 to 500,–,–,–
Cc1sc2c(c1C)C(c1ccc(NCCCC3CCN(CCOc4ccc([C@@H]5c6ccc(O)cc6CC[C@@H]5c5ccccc5)cc4)CC3)cc1)=NC(Cc1ncco1)c1nnc(C)n1-2 (stereo partly drawn) [III-48],< 50,50 to 500,< 50,–,–,–
Cc1sc2c(c1C)C(c1ccc(NC[C@H]3CC[C@H](CNCCOc4ccc([C@@H]5c6ccc(O)cc6CC[C@@H]5c5ccccc5)cc4)CC3)cc1)=NC(Cc1ncco1)c1nnc(C)n1-2 (stereo partly drawn) [III-49],< 50,50 to 500,< 50,–,–,–
Cc1sc2c(c1C)C(c1ccc(N3CCN(C4CCN(CCOc5ccc([C@@H]6c7ccc(O)cc7CC[C@@H]6c6ccccc6)cc5)C4)CC3)cc1)=NC(Cc1ncco1)c1nnc(C)n1-2 (stereo partly drawn) [III-50],< 50,50 to 500,< 50,–,–,–
Cc1sc2c(c1C)C(c1ccc(NCC3CC4(C3)CN(CCOc3ccc([C@@H]5c6ccc(O)cc6CC[C@@H]5c5ccccc5)cc3)C4)cc1)=NC(Cc1ncco1)c1nnc(C)n1-2 (stereo partly drawn) [III-51],< 50,50 to 500,< 50,–,–,–
Cc1sc2c(c1C)C(c1ccc(N[C@H]3CC[C@@H](NCCOc4ccc([C@@H]5c6ccc(O)cc6CC[C@@H]5c5ccccc5)cc4)CC3)cc1)=NC(Cc1ncco1)c1nnc(C)n1-2 (stereo partly drawn) [III-52],50 to 500,50 to 500,50 to 500,–,–,–
Cc1sc2c(c1C)C(c1ccc(NCC3CCCN(CCOc4ccc([C@@H]5c6ccc(O)cc6CC[C@@H]5c5ccccc5)cc4)C3)cc1)=NC(Cc1ncco1)c1nnc(C)n1-2 (stereo partly drawn) [III-53],50 to 500,50 to 500,50 to 500,–,–,–
Cc1sc2c(c1C)C(c1ccc(N3CCC[C@@H](CNCCOc4ccc([C@@H]5c6ccc(O)cc6CC[C@@H]5c5ccccc5)cc4)C3)cc1)=NC(Cc1ncco1)c1nnc(C)n1-2 (stereo partly drawn) [III-54],50 to 500,50 to 500,50 to 500,–,–,–
Cc1sc2c(c1C)C(c1ccc(N3CCCC4(CCN(CCOc5ccc([C@@H]6c7ccc(O)cc7CC[C@@H]6c6ccccc6)cc5)CC4)C3)cc1)=NC(Cc1ncco1)c1nnc(C)n1-2 (stereo partly drawn) [III-55],50 to 500,500 to 2500,50 to 500,–,–,–
Cc1sc2c(c1C)C(c1ccc(NCC3CCCCN3CCOc3ccc([C@@H]4c5ccc(O)cc5CC[C@@H]4c4ccccc4)cc3)cc1)=NC(Cc1ncco1)c1nnc(C)n1-2 (stereo partly drawn) [III-56],50 to 500,50 to 500,50 to 500,–,–,–
Cc1sc2c(c1C)C(c1ccc(NCC3CCN(CCOc4ccc([C@@H]5c6ccc(O)cc6CC[C@@H]5c5ccccc5)cc4)C3)cc1)=NC(Cc1ncco1)c1nnc(C)n1-2 (stereo partly drawn) [III-57],50 to 500,50 to 500,50 to 500,–,–,–
Cc1sc2c(c1C)C(c1ccc(N[C@H]3CC[C@H](NCCOc4ccc([C@@H]5c6ccc(O)cc6CC[C@@H]5c5ccccc5)cc4)CC3)cc1)=NC(Cc1ncco1)c1nnc(C)n1-2 (stereo partly drawn) [III-58],< 50,50 to 500,50 to 500,–,–,–
Cc1sc2c(c1C)C(c1ccc(N[C@H]3C[C@H]4CC[C@@H](C3)N4CCOc3ccc([C@@H]4c5ccc(O)cc5CC[C@@H]4c4ccccc4)cc3)cc1)=NC(Cc1ncco1)c1nnc(C)n1-2 (stereo partly drawn) [III-59],< 50,50 to 500,50 to 500,–,–,–
Cc1sc2c(c1C)C(c1ccc(N3CCOC4(CCN(CCOc5ccc([C@@H]6c7ccc(O)cc7CC[C@@H]6c6ccccc6)cc5)CC4)C3)cc1)=CC(Cc1ncco1)c1nnc(C)n1-2 (stereo partly drawn) [III-60],50 to 500,50 to 500,50 to 500,–,–,–
Cc1sc2c(c1C)C(c1ccc(N3CC[C@@H](CNCCOc4ccc([C@@H]5c6ccc(O)cc6CC[C@@H]5c5ccccc5)cc4)C3)cc1)=NC(Cc1ncco1)c1nnc(C)n1-2 (stereo partly drawn) [III-61],< 50,50 to 500,< 50,–,–,–
Cc1sc2c(c1C)C(c1ccc(N3CCC(C)(CNCCOc4ccc([C@@H]5c6ccc(O)cc6CC[C@@H]5c5ccccc5)cc4)CC3)cc1)=NC(Cc1ncco1)c1nnc(C)n1-2 (stereo partly drawn) [III-62],< 50,50 to 500,50 to 500,–,–,–
Cc1sc2c(c1C)C(c1ccc(N3CCN(C4CCN(CCOc5ccc([C@@H]6c7ccc(O)cc7CC[C@@H]6c6ccccc6)cc5)CC4)CC3)cc1)=NC(Cc1ncco1)c1nnc(C)n1-2 (stereo partly drawn) [III-63],< 50,50 to 500,50 to 500,–,–,–
Cc1sc2c(c1C)C(c1ccc(N[C@@H]3C[C@H]4CCC[C@@H](C3)N4CCOc3ccc([C@@H]4c5ccc(O)cc5CC[C@@H]4c4ccccc4)cc3)cc1)=NC(Cc1ncco1)c1nnc(C)n1-2 (stereo partly drawn) [III-64],50 to 500,50 to 500,50 to 500,–,–,–
Cc1sc2c(c1C)C(c1ccc(N3CCC4(CC3)CC(NCCOc3ccc([C@@H]5c6ccc(O)cc6CC[C@@H]5c5ccccc5)cc3)C4)cc1)=NC(Cc1ncco1)c1nnc(C)n1-2 (stereo partly drawn) [III-65],< 50,50 to 500,50 to 500,–,–,–
Cc1sc2c(c1C)C(c1ccc(N3CCO[C@@H](CNCCOc4ccc([C@@H]5c6ccc(O)cc6CC[C@@H]5c5ccccc5)cc4)C3)cc1)=NC(Cc1ncco1)c1nnc(C)n1-2 (stereo partly drawn) [III-66],50 to 500,50 to 500,50 to 500,–,–,–
Cc1sc2c(c1C)C(c1ccc(N3CCN(CC4CN(c5ccc([C@@H]6c7ccc(O)cc7CC[C@@H]6c6ccccc6)cc5)C4)CC3)cc1)=N[C@@H](C)c1nnc(C)n1-2 [III-67],< 50,< 50,< 50,–,–,–
Cc1sc2c(c1C)C(c1ccc(N3CCN(CC4CN(c5ccc([C@H]6c7ccc(O)cc7CC[C@H]6c6ccccc6)cc5)C4)CC3)cc1)=N[C@@H](C)c1nnc(C)n1-2 [III-68],50 to 500,500 to 2500,50 to 500,–,–,–
Cc1sc2c(c1C)C(c1ccc(OCC3CN(CC4CCN(c5ccc([C@H]6c7ccc(O)cc7CC[C@H]6c6ccccc6)cc5)CC4)C3)cc1)=N[C@@H](C)c1nnc(C)n1-2 [III-69],50 to 500,50 to 500,50 to 500,–,–,–
Cc1sc2c(c1C)C(c1ccc(OCC3CN(CC4CCN(c5ccc([C@@H]6c7ccc(O)cc7CC[C@@H]6c6ccccc6)cc5)CC4)C3)cc1)=N[C@@H](C)c1nnc(C)n1-2 [III-70],< 50,50 to 500,< 50,–,–,–
Cc1sc2c(c1C)C(c1ccc(N3CCC(CN4CCN(c5ccc([C@H]6c7ccc(O)cc7CC[C@H]6c6ccccc6)cc5)CC4)CC3)cc1)=N[C@H](Cc1ncco1)c1nnc(C)n1-2 [III-71],–,–,–,> 2500,> 2500,> 2500
